{
  "source": "patent US20020054941A1",
  "about": "“Methods and compositions to enhance tenderness and value of meat” (The Board of Regents of the University of Nebraska, priority 2000, published 2002)",
  "key": {"Triceps brachii (TBR)": {"tested_on": "Triceps brachii (TBR)", "experiment": "Warner-Bratzler shear force of muscle pumped pre-rigor with sodium citrate", "parameters": "species or system steers; unit not given here", "method": "(§1) Thoracic limbs from 14 steers were chilled on the carcass (controls) or removed within 2 hours post-mortem and pumped to 10% of muscle weight with water, 200 mM or 400 mM sodium citrate solutions. The injections were performed at various sites along the muscle. The control remained on the carcass. Muscle pH and temperature were measured immediately prior to pumping. Experimental and control muscles were chilled at 2° C. for 24 hours. Steaks (2.54 cm thick) were removed after 24 hours from the Infraspinatus, Supraspinatus and Triceps brachii muscles and were either frozen immediately or aged for another 6 days and then evaluated. A consumer panel evaluated palatability juiciness, tenderness, connective tissue amount, and flavor desirability) on Infraspinatus and Triceps brachii steaks using 9-point hedonic scales (1 being very undesirable and 9 being very desirable) for each trait. Warner-Bratzler shear force values were determined on 1.27 cm-diameter cores from steaks that were broiled to an internal temperature of 70° C."}, "Infraspinatus (ISP)": {"tested_on": "Infraspinatus (ISP)", "experiment": "Warner-Bratzler shear force of muscle pumped pre-rigor with sodium citrate", "parameters": "species or system steers; unit not given here", "method": "as §1"}, "Supraspinatus (SSP)": {"tested_on": "Supraspinatus (SSP)", "experiment": "Warner-Bratzler shear force of muscle pumped pre-rigor with sodium citrate", "parameters": "species or system steers; unit not given here", "method": "as §1"}, "spoilage micro-organisms": {"tested_on": "spoilage micro-organisms", "experiment": "Microbial stability (logarithmic microbiological growth)", "settings": "for Logarithmic Microbiological Growth Values, difference: difference day 5 - day 0", "method": "as §1\nThere were no differences in initial microbial load among the treatments."}, "[1]": {"tested_on": "sternomandibularis beef muscles", "experiment": "Shear force of pre-rigor injected sectioned muscle", "settings": "200 mM (glucose, calcium chloride 300 mM)", "method": "Pre-rigor beef muscle was sectioned into 100 g. samples at approximately 3 hours post-mortem. The pieces were injected with 10 mL of treatment solution followed by marination in the solution for 24 hours at 2° C. before testing pH and recording visual color of the muscle sections. For evaluation of shear force, samples were thawed, cooked, sliced (approximately 6 mm by 6 mm) and then cooled before readings were taken. The solutions used for this procedure were as described above for homogenized muscle.\nPre-rigor beef muscle was sectioned and the sections were injected at approximately 1 hour post-mortem with a volume of treatment solution equal to 10% of the muscle weight. Objective color measurements were taken on pieces of each muscle section and the pieces were then frozen, powdered and stored at −80° C. for up to 10 days before testing pH and analyzing oxidation-reduction potential. Shear force was evaluated as described immediately above. Solutions used in this procedure were as follows: sodium citrate (200 mM), sodium acetate (200 mM), glucose (300 mM), calcium citrate (200 mM), calcium chloride (300 mM), injection with water, and no injection (control). The calcium citrate solution was prepared as a suspension using 0.25% carrageenan and 200 mM calcium citrate due to its insolubility in water. However, use of calcium citrate can be optimized by increasing solubility by means known in the art."}, "[2]": {"tested_on": "triceps brachii beef muscles", "experiment": "Glycogen content, pre-rigor injection of whole muscle", "settings": "200 mM, calcium chloride 300 mM", "method": "(§2) Experiment were conducted to test the effects of pre-rigor injection of several compounds. Effects of these compounds on pH, color, tenderness and other related traits of low-value beef cuts were investigated. Ten steers (22 to 24 mo of age, 515 to 676 kg live weight) were slaughtered according to current industry procedures. Pre-rigor semimembranosus (from the round), triceps brachii and supraspinatus muscles (from the chuck) were excised, after evisceration (approximately 1 hour post-mortem), from both sides of the carcass. Muscle sections were randomly assigned to the treatments: sodium citrate (NaC; 200 mM), sodium fluoride (NaF; 200 mM), sodium acetate (NaA; 200 mM), and calcium chloride (CaCl2; 300 mM). The control samples remained on the carcass at 2° C. for 24 hours to simulate commercial conditions. Following a cooling, control muscles were removed from each carcass (4 replicates), vacuum packaged and transferred to the holding cooler with the other cuts at 2° C. Calcium chloride treatment was included to be compared with the other treatments.\n(§3) At 2 hours post-mortem, each muscle was injected with a volume equal to 8% of the muscle weight using a four-needle hand injector. The temperature of solutions were 4° C. Each muscle was individually treated (2% of solution was added to give a total of 10% of muscle weight) and tumbled in a 75-pound capacity tumbler (Röschermatic, Oshabrück, Germany) for 30 min to insure uniform distribution of the solution.\n(§4) Samples of each muscle (approximately 100 g) were taken at 0 hour (before injection), 24, and 72 hours after injection for determination of pH, oxidation-reduction potential, glycogen content, R-values, NAD, and NADH. The samples were then immediately frozen in liquid nitrogen and stored at −80° C. until they were powdered and analyzed. Fresh muscle samples (approximately 20 g) were taken at 72 hours after injection and assayed immediately for water holding capacity and sarcomere length.\n(§5) Glycogen extraction was performed in duplicate with 3 g of frozen-powdered muscle sample, which was homogenized with 0.6 N perchloric acid. Amylo-α-1,4-α-1,6- glucosidase from Aspergillus niger (No. A3514. Sigma Chemical, St. Louis, Mo.) was used for the breakdown of the glycogen molecules to free glucose following the method described by Roehrig and Allred (1974). Homogenate was incubated for 2 hours at 37° C., then 100 μL of 3 N perchloric acid was added to precipitate the proteins. After centrifugation, the supernatant was stored at 0-4° C., until analyzed, which was within 2 weeks.\n(§6) The assay for glucose was run as described by Dalrymple and Hamm (1973) and Roehrig and Allred (1974), using glucose-6-phosphate dehydrogenase (No. G8878. Sigma Chemical, St. Louis, Mo.) and hexokinase (No. H5500. Sigma Chemical, St. Louis, Mo.). Briefly, the method involves an exoglucosidase, Amylogucosidase, from Aspergillus niger which hydrolyses the -α-D-(1-4) and -α-D-(1-6)-linkages of glycogen. The glucose formed is specifically determined with hexokinase and glucose-6-phosphate dehydrogenase. The glucose liberated after hydrolysis of glycogen is proportional to the increase of absorbance measured at 340 nm. Fifty μL of sample was incubated with 1 mL ATP, NADP, Glucose-6-phosphate dehydrogenase buffer and 5 μL hexokinase at 37° C. for 15 min. Absorbance was measured at 340 nm wavelength, light path=1 cm. The muscle glycogen content was calculated with the following formula: Glycogen (μmol glucose/g wet muscle weight)=111.882×absorbance. 111.882 is the dilution factor."}, "[3]": {"tested_on": "supraspinatus beef muscles", "experiment": "Glycogen content, pre-rigor injection of whole muscle", "method": "as §2, §3, §4, §5, §6"}},
  "note": "Marks after values point to notes of the source that are not given here.",
  "data": [
    {"smiles": "O=C([O-])CC(O)(CC(=O)[O-])C(=O)[O-].[Na+].[Na+].[Na+]", "note": "[Sodium citrate, sodium citrate]", "values": [
      {"measurement": "WBSF", "setting": "Triceps brachii (TBR); 200 mM, d1", "result": "3.85^a"},
      {"measurement": "WBSF", "setting": "Triceps brachii (TBR); 200 mM, d7", "result": "3.57^b"},
      {"measurement": "WBSF", "setting": "Triceps brachii (TBR); 400 mM, d1", "result": "3.55^a"},
      {"measurement": "WBSF", "setting": "Triceps brachii (TBR); 400 mM, d7", "result": "3.09^a"},
      {"measurement": "WBSF", "setting": "Infraspinatus (ISP); 200 mM, d1", "result": "3.57^b"},
      {"measurement": "WBSF", "setting": "Infraspinatus (ISP); 200 mM, d7", "result": "3.12^b"},
      {"measurement": "WBSF", "setting": "Infraspinatus (ISP); 400 mM, d1", "result": "3.32^a"},
      {"measurement": "WBSF", "setting": "Infraspinatus (ISP); 400 mM, d7", "result": "2.79^a"},
      {"measurement": "WBSF", "setting": "Supraspinatus (SSP); 200 mM, d1", "result": "4.09^a"},
      {"measurement": "WBSF", "setting": "Supraspinatus (SSP); 200 mM, d7", "result": "3.83^a"},
      {"measurement": "WBSF", "setting": "Supraspinatus (SSP); 400 mM, d1", "result": "3.91^a"},
      {"measurement": "WBSF", "setting": "Supraspinatus (SSP); 400 mM, d7", "result": "4.03^a"},
      {"measurement": "Logarithmic Microbiological Growth Values", "setting": "spoilage micro-organisms; 200 mM, day 0", "result": 2.58},
      {"measurement": "Logarithmic Microbiological Growth Values", "setting": "spoilage micro-organisms; 200 mM, day 5", "result": "5.45^b"},
      {"measurement": "Logarithmic Microbiological Growth Values, difference", "setting": "spoilage micro-organisms; 200 mM", "result": "2.88^b"},
      {"measurement": "Logarithmic Microbiological Growth Values", "setting": "spoilage micro-organisms; 400 mM, day 0", "result": 2.72},
      {"measurement": "Logarithmic Microbiological Growth Values", "setting": "spoilage micro-organisms; 400 mM, day 5", "result": "5.11^b"},
      {"measurement": "Logarithmic Microbiological Growth Values, difference", "setting": "spoilage micro-organisms; 400 mM", "result": "no greater microbial growth than the control"},
      {"measurement": "Logarithmic Microbiological Growth Values, difference", "setting": "spoilage micro-organisms; 400 mM, listed as NaCit", "result": "2.40^a,b"},
      {"measurement": "Shear force, kg (72 h)", "setting": "[1]", "result": "11.09^ab kg"},
      {"measurement": "Glycogen, 0 h", "setting": "[2]; 0 h (before injection)", "result": 38.74, "unit": "μmol/g muscle"},
      {"measurement": "Glycogen, 24 h", "setting": "[2]; 24 h", "result": "32.93^b μmol/g muscle"},
      {"measurement": "Glycogen, 72 h", "setting": "[2]; 72 h", "result": "27.58^b μmol/g muscle"},
      {"measurement": "Glycogen, 0 h", "setting": "[3]; 0 h (before injection)", "result": 45.18, "unit": "μmol/g muscle"},
      {"measurement": "Glycogen, 24 h", "setting": "[3]; 24 h, 200 mM, calcium chloride 300 mM", "result": 30.43, "unit": "μmol/g muscle"},
      {"measurement": "Glycogen, 72 h", "setting": "[3]; 72 h, 200 mM, calcium chloride 300 mM", "result": "22.65^ab μmol/g muscle"}
    ]}
  ]
}
